Assay results from patent publication US20080287544A1, “Method for Screening Substance by Measuring PPAR DELTA Activating Effect and Agent” (Teijin Limited, priority 2001, published 2008).

Key:
UCP1 = UCP1 expression-enhancing effect in skeletal muscle cells or adipocytes; assay type: cell-based
human white adipocytes = test: Free fatty acid β-oxidation in human white adipocytes ([9,10(n)-3H]palmitic acid, 3H2O release); assay type: cell-based; conditions: 10 μM, 48 hr, vs DMSO control
Description: After human fully differentiated white adipocytes had been prepared in the same manner as in Example 1, the supernatant was removed, and 500 μl of a medium which had been prepared by adding adequate amounts of oleic acid and palmitic acid to an adipocyte medium so that their concentrations were 0.67 mM and 0.33 mM, respectively, was added. Various kinds of test compounds were added to the medium in such a manner that their final concentrations were 10 μM, and subsequently, [9,10(n)-3H]palmitic acid (manufactured by Amersham Pharmacia, final concentration of 1 μCi/ml) was added to each well, and the cells were cultured at 37° C. for 48 hr. The test compounds were YM-16638 of a PPAR δ ligand, WY14643 of a PPAR α ligand, L755,507 of a β3 adrenergic receptor agonist and Rosiglitazone of a PPAR γ ligand. A control was prepared by adding DMSO, which was the solvent for the test compounds, in such a manner that the final concentration was 0.5%, and it was cultured in the same manner as the test compounds. In order to prevent the evaporation of ^3H2O produced by β-oxidation of the [9,10(n)-^3H]palmitic acid by the cells during culture, the culture plates were sealed with mini-culture filters (MS-30055) manufactured by Sumitomo Bakelite Co. Ltd.
After 48-hour culture, 200 μl of the supernatant of the medium was transferred to a 1.5-ml Eppendorf tube, 50 μl of 50% trichloroacetic acid was added, the tube was held on ice for 30 min to produce precipitates, and the mixture was centrifuged for 10 min at 15,000 rpm. Subsequently, in a 20-ml glass vial into which 500 μl of distilled water had been placed in advance, a cap-free 1.5-ml Eppendorf tube was placed, the total amount of the supernatant obtained above was placed into this Eppendorf tube, and the vial was tightly sealed with a polypropylene packing-attached lid. […] Into the ^3H2O-containing distilled water remaining in the vial, 5 ml of a liquid scintillation cocktail (Ultima Gold, manufactured by Packard) was added, and radioactivity was measured after sufficient mixing.

UCP2 = conditions: J. Biol. Chem. 276, 10853-10860 (2001); cited from earlier work

In the case of Cc1cccc(Nc2cc(Cl)nc(SCC(=O)O)n2)c1C [WY14643], the UCP1 expression-enhancing effect (UCP1) is reported as “hardly exhibit a UCP1 expression enhancing effect” and the “enhancement of β-oxidation in the cells” value (human white adipocytes) is reported as “no enhancement”.
In the case of CN(CCOc1ccc(CC2SC(=O)NC2=O)cc1)c1ccccn1 (stereo not drawn) [Rosiglitazone], the “enhancement of β-oxidation in the cells” value (human white adipocytes) is reported as 15%.
For CCCCCCNC(=O)Nc1ccc(S(=O)(=O)Nc2ccc(CCNC[C@H](O)COc3ccc(O)cc3)cc2)cc1 [L755,507], the “enhancement of β-oxidation in the cells” value (human white adipocytes) was “no enhancement”.
For CCCCC/C=C\C/C=C\C/C=C\C/C=C\CCCC(=O)O [arachidonic acid], the “expression of UCP2” value (UCP2) is given as “increase the expression of UCP2”.
For CCCCC[C@H](O)/C=C/[C@@H]1[C@H]2C/C(=C/CCCC(=O)O)C[C@H]2C[C@H]1O [carbaprostacyclin, 6,9 α-methylene-11 α, 15S-dihydroxy-prosta-5E, 13E-dien-1-oic acid], the “expression of UCP2” value (UCP2) is given as “increase the expression of UCP2” and the UCP1 expression-enhancing effect (UCP1) is given as “had a UCP1 expression-enhancing effect”.
For CCCc1c(OCCCOc2ccc(OCC(=O)O)cc2)ccc(C(C)=O)c1O [L-165041, 4-(3-(2-propyl-3-hydroxy-4-acetyl-phenoxy)propyloxy)-phenoxyacetic acid], the “expression of UCP2” value (UCP2) is listed as “increase the expression of UCP2”.
For CC#CCC(C)[C@H](O)/C=C/[C@@H]1[C@H]2C/C(=C/CCCC(=O)O)C[C@H]2C[C@H]1O (stereo partly drawn) [Iloprost, 5-{(E)-(1S,5S,6R,7R)-7-hydroxy-6-[(E)-(3S,4RS)-3-hydroxy-4-methyl-5-octen-6-inyl]-bicyclo[3.3.0]-octan-3-ylidene} pentenoic acid], the UCP1 expression-enhancing effect (UCP1) was “had a UCP1 expression-enhancing effect”.
